Reference: ChEMBL document CHEMBL4622970, “Design, Synthesis, and Evaluation of New Quinazolinone Derivatives that Inhibit Bloom Syndrome Protein (BLM) Helicase, Trigger DNA Damage at the Telomere Region, and Synergize with PARP Inhibitors” (J Med Chem, 2020)
One block for each molecule: values may come before it. The source made the active and inactive calls. The calls are words filed in the database; no cut-off is given here.

Tests used:
[1] = molecular target: T1, RecQ-like DNA helicase BLM (Homo sapiens, UniProt P54132); test: Inhibition of BLM in human HCT116 cells assessed as potentiation of niraparib-induced cytotoxicity at 1 to 2 uM measured after 48 hrs by MTT assay; format: cell-based; conditions: HCT-116
[2] = test system: RecQ-like DNA helicase BLM (Homo sapiens), P54132 [H996A]; test: (§1) Binding affinity to His-tagged BLM H996A mutant (unknown origin) expressed in Escherichia coli BL21 (DE3) cells by isothermal calorimetric titration assay
[3] = molecular target: T1, RecQ-like DNA helicase BLM; test: Binding affinity to BLM in human HCT116 cells cotransfected with DSB model and I-SceI plasmid assessed as reduction in recruitment of protein to DNA region distant from DSB site at 1 uM measured after 24 hrs by chromatin immunoprecipitation assay; format: cell-based; conditions: HCT-116
[4] = molecular target: T1, RecQ-like DNA helicase BLM; test: Binding affinity to BLM in human HCT116 cells cotransfected with DSB model and I-SceI plasmid assessed as reduction in recruitment of protein to DSB site in DNA at 1 uM measured after 24 hrs by chromatin immunoprecipitation assay; format: cell-based; conditions: HCT-116
[5] = molecular target: T1, RecQ-like DNA helicase BLM; test: (§2) Inhibition of His-tagged BLM (642 to 1296 residues) (unknown origin) expressed in Escherichia coli BL21 (DE3) cells assessed as reduction in DNA unwinding activity using 5'-biotin-labeled forked DNA as substrate preincubated for 1 hr followed by substrate addition and measured after 1 hr by electrophoretic mobility shift assay
[6] = molecular target: T1, RecQ-like DNA helicase BLM; test: Inhibition of BLM in human HCT116 cells assessed as potentiation of olaparib-induced cytotoxicity at 1 to 2 uM measured after 48 hrs by MTT assay; format: cell-based; conditions: HCT-116
[7] = molecular target: T1, RecQ-like DNA helicase BLM; test: Inhibition of BLM in human HCT116 cells assessed as down regulation of HRR level at 0.5 uM measured after 24 hrs by luciferase reporter gene assay; format: cell-based; conditions: HCT-116
[8] = molecular target: T1, RecQ-like DNA helicase BLM; test: Binding affinity to wild-type His-tagged BLM (642 to 1296 residues) (unknown origin) expressed in Escherichia coli BL21 (DE3) cells by isothermal calorimetric titration assay
[9] = test system: RecQ-like DNA helicase BLM (Homo sapiens), P54132 [I1168A]; test: (§3) Binding affinity to His-tagged BLM I1168A mutant (unknown origin) expressed in Escherichia coli BL21 (DE3) cells by isothermal calorimetric titration assay
[10] = molecular target: T1, RecQ-like DNA helicase BLM; test: Inhibition of BLM in human HCT116 cells assessed as increase in gamma-H2AX level at 2 uM measured after 24 hrs by Western blot analysis; format: cell-based; conditions: HCT-116
[11] = test system: HCT-116; test: Cytotoxicity against human HCT116 cells by MTT assay; format: functional, cell-based
[12] = molecular target: T1, RecQ-like DNA helicase BLM; test: Binding affinity to His-tagged BLM (642 to 1296 residues) (unknown origin) expressed in Escherichia coli BL21 (DE3) cells assessed as inhibition of protein interaction with 5'-biotin-labeled forked DNA measured after 1 hr by ELISA
[13] = molecular target: RecQ-like DNA helicase BLM (Homo sapiens, UniProt P54132, H996A); test: as §1
[14] = molecular target: T1, RecQ-like DNA helicase BLM; test: Inhibition of BLM in human HCT116 cells assessed as increase in gamma-H2AX foci at 1 to 4 uM measured after 24 hrs by DAPI staining based immunofluorescence assay; format: cell-based; conditions: HCT-116
[15] = molecular target: T1, RecQ-like DNA helicase BLM; test: Inhibition of BLM in human HCT116 cells assessed as upregulation of CHK1 phosphorylation by Western blot analysis; format: cell-based; conditions: HCT-116
[16] = molecular target: T1, RecQ-like DNA helicase BLM; test: Inhibition of BLM in human HCT116 cells assessed as potentiation of niraparib-induced cytotoxicity by measuring combination index at 1 to 2 uM measured after 48 hrs by MTT assay; format: cell-based; conditions: HCT-116
[17] = molecular target: T1, RecQ-like DNA helicase BLM; test: Inhibition of BLM in human HCT116 cells assessed as potentiation of cisplatin-induced cytotoxicity by measuring combination index at 1 to 2 uM measured after 48 hrs by MTT assay; format: cell-based; conditions: HCT-116
[18] = molecular target: T1, RecQ-like DNA helicase BLM; test: Inhibition of BLM in human HCT116 cells assessed as upregulation of ATM phosphorylation up to 4 uM by Western blot analysis; format: cell-based; conditions: HCT-116
[19] = molecular target: T1, RecQ-like DNA helicase BLM; test: Inhibition of BLM in human HCT116 cells assessed as upregulation of CHK2 phosphorylation by Western blot analysis; format: cell-based; conditions: HCT-116
[20] = molecular target: T1, RecQ-like DNA helicase BLM; test: Binding affinity to BLM in human HCT116 cells cotransfected with DSB model and I-SceI plasmid assessed as reduction in recruitment of protein to DSB site in DNA at 2 uM measured after 24 hrs by chromatin immunoprecipitation assay; format: cell-based; conditions: HCT-116
[21] = test system: HCT-116; test: Antiproliferative activity against wild-type human HCT116 cells assessed as inhibition of cell proliferation by real-time cellular analysis; format: functional, cell-based
[22] = molecular target: T1, RecQ-like DNA helicase BLM; test: Binding affinity to BLM in human HCT116 cells cotransfected with DSB model and I-SceI plasmid assessed as reduction in recruitment of protein to DNA region distant from DSB site at 2 uM measured after 24 hrs by chromatin immunoprecipitation assay; format: cell-based; conditions: HCT-116
[23] = molecular target: T1, RecQ-like DNA helicase BLM; test: Inhibition of BLM in human HCT116 cells assessed as increase in gamma-H2AX-TRF2 foci colocalization mediated telomere dysfunction-induced foci formation at 1 uM measured after 24 hrs in presence of […] inhibitor niraparib by DAPI staining based immunofluorescence assay; format: cell-based; conditions: HCT-116
[24] = test system: HCT-116; test: Induction of apoptosis in human HCT116 cells assessed as apoptotic cell population at 4 uM measured after 48 hrs by Annexin V-FITC/propidium iodide staining based flow cytometry (reference value: 17.4%); format: functional
[25] = test system: HCT-116; test: Induction of apoptosis in human HCT116 cells assessed as upregulation of cleaved PARP expression up to 4 uM measured after 48 hrs by Western blot analysis; format: functional, cell-based
[26] = molecular target: T1, RecQ-like DNA helicase BLM; test: Inhibition of BLM in human HCT116 cells assessed as potentiation of BIBR1532-induced cytotoxicity by measuring combination index at 1 to 2 uM measured after 48 hrs by MTT assay; format: cell-based; conditions: HCT-116
[27] = molecular target: T1, RecQ-like DNA helicase BLM; test: Inhibition of BLM in human HCT116 cells assessed as increase in gamma-H2AX-TRF2 foci colocalization mediated telomere dysfunction-induced foci formation measured after 24 hrs by DAPI staining based immunofluorescence assay; format: cell-based; conditions: HCT-116
[28] = test system: HCT-116; test: Induction of apoptosis in human HCT116 cells assessed as upregulation of cleaved caspase-3 expression up to 4 uM measured after 48 hrs by Western blot analysis; format: functional, cell-based
[29] = test system: HCT-116; test: Induction of apoptosis in human HCT116 cells assessed as upregulation of cleaved caspase-7 expression up to 4 uM measured after 48 hrs by Western blot analysis; format: functional, cell-based
[30] = molecular target: T1, RecQ-like DNA helicase BLM; test: Inhibition of BLM in human HCT116 cells assessed as upregulation of ATR phosphorylation up to 4 uM by Western blot analysis; format: cell-based; conditions: HCT-116
[31] = molecular target: T1, RecQ-like DNA helicase BLM; test: Inhibition of BLM in human HCT116 cells assessed as potentiation of olaparib-induced cytotoxicity at 1 to 2 uM measured after 48 hrs by MTT assay relative to olaparib alone; format: cell-based; conditions: HCT-116
[32] = test system: HCT-116; test: Antiproliferative activity against human HCT116 cells harboring siBLM assessed as inhibition of cell proliferation at 1 to 2 uM by real-time cellular analysis; format: functional, cell-based
[33] = molecular target: T1, RecQ-like DNA helicase BLM; test: Inhibition of BLM in human HCT116 cells assessed as increase in gamma-H2AX-TRF2 foci colocalization mediated telomere dysfunction-induced foci formation at 1 to 4 uM measured after 24 hrs by DAPI staining based immunofluorescence assay relative to total gamma-H2AX foci; format: cell-based; conditions: HCT-116
[34] = molecular target: T1, RecQ-like DNA helicase BLM; test: Inhibition of BLM in human HCT116 cells assessed as induction of telomere end loss at 4 uM by fluorescent in situ hybridization; format: cell-based; conditions: HCT-116
[35] = test system: HCT-116; test: Induction of apoptosis in human HCT116 cells measured after 48 hrs by Annexin V-FITC/propidium iodide staining based flow cytometry; format: functional, cell-based
[36] = molecular target: RecQ-like DNA helicase BLM (Homo sapiens, UniProt P54132, I1168A); test: as §3
[37] = molecular target: T1, RecQ-like DNA helicase BLM; test: Inhibition of BLM in human HCT116 cells assessed as potentiation of olaparib-induced cytotoxicity by measuring combination index at 1 to 2 uM measured after 48 hrs by MTT assay; format: cell-based; conditions: HCT-116
[38] = molecular target: T1, RecQ-like DNA helicase BLM; test: Inhibition of BLM in human HCT116 cells assessed as potentiation of niraparib-induced cytotoxicity at 1 to 2 uM measured after 48 hrs by MTT assay relative to niraparib alone; format: cell-based; conditions: HCT-116
[39] = molecular target: T1, RecQ-like DNA helicase BLM; test: as §2, with “activity at <10 uM” for “activity”

T1 sequence (P54132 whole entry): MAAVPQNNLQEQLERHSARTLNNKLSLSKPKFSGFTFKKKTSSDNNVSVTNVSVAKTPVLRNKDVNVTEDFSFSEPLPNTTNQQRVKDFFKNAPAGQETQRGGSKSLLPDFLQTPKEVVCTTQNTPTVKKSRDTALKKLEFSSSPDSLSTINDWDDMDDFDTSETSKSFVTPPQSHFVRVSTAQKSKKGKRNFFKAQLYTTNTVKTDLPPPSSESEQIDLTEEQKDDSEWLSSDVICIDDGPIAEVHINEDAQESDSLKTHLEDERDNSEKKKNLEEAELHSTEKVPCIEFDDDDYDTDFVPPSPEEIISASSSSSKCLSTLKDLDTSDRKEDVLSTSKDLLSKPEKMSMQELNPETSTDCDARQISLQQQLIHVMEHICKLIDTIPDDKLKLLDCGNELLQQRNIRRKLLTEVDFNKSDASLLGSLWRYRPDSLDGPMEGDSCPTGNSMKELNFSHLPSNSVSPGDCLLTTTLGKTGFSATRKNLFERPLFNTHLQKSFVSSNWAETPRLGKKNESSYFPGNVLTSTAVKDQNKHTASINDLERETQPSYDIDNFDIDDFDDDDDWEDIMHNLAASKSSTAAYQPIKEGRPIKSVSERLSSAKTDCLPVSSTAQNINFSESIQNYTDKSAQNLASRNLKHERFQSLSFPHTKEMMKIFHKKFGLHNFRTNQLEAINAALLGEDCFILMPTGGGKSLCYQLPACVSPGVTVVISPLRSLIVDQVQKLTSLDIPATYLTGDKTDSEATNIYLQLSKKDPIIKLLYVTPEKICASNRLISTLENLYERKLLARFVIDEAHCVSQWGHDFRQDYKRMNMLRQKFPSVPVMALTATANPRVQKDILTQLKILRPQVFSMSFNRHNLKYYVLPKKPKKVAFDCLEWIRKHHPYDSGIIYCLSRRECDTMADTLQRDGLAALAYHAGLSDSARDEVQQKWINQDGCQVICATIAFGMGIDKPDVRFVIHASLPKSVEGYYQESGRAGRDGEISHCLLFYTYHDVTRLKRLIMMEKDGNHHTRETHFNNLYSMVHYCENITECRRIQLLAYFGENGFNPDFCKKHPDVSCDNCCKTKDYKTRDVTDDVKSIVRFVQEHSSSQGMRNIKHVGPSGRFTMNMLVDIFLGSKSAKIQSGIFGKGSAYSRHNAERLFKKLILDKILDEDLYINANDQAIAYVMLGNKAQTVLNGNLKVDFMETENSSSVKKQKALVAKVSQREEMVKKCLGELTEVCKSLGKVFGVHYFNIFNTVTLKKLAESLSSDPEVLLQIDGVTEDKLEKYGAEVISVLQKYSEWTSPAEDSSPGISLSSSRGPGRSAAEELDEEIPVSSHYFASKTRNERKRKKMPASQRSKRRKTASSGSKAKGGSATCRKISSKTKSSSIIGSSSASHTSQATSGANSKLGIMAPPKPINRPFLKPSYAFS
Chain of RecQ-like DNA helicase BLM (Homo sapiens, UniProt P54132, H996A) (P54132 whole entry H996A): as the sequence (P54132 whole entry) above, with H996A counted along it
Chain of RecQ-like DNA helicase BLM (Homo sapiens), P54132 [H996A] (P54132 whole entry H996A): as the sequence (P54132 whole entry) above, with H996A counted along it
Chain of RecQ-like DNA helicase BLM (Homo sapiens), P54132 [I1168A] (P54132 whole entry I1168A): as the sequence (P54132 whole entry) above, with I1168A counted along it
Chain of RecQ-like DNA helicase BLM (Homo sapiens, UniProt P54132, I1168A) (P54132 whole entry I1168A): as the sequence (P54132 whole entry) above, with I1168A counted along it

Activity [2]: Active | Activity [3]: Active | Activity [4]: Active | IC50 [5]: 1.5 µM | inhibition [7]: Active | Activity [8]: Active | Activity [9]: Active
SMILES: CCN(CC)CCCNc1cc2nc3n(c(=O)c2cc1F)CC/C3=C\c1ccc(C(C)C)cc1
inhibition [1]: Active | inhibition [6]: Active

inhibition [10]: Active | IC50 [5]: 2.7 µM | inhibition [7]: Active
SMILES: CCN(CC)CCNc1cc2nc3n(c(=O)c2cc1F)CC/C3=C\c1ccc(C(C)(C)C)cc1
Activity [11]: Active

inhibition [10]: Active | IC50 [5]: 2 µM | inhibition [7]: Active
SMILES: CCN(CC)CCNc1cc2nc3n(c(=O)c2cc1F)CC/C3=C\c1ccc(C(C)C)cc1
Activity [11]: Active

IC50 [12]: 8.7 µM | Kd [13]: 1.4 µM | inhibition [14]: Active | inhibition [10]: Active | inhibition [15]: Dose-dependent effect | inhibition [18]: Active | inhibition [19]: Dose-dependent effect | Activity [20]: Active | IC50 [5]: 0.8 µM | Activity [22]: Active | inhibition [23]: Active | inhibition [27]: Dose-dependent effect | inhibition [7]: Active | Kd [8]: 0.76 µM | inhibition [30]: Active | inhibition [33]: > 70% | inhibition [34]: Active | Kd [36]: 6.54 µM
SMILES: CCN(CC)CCCNc1cc2nc(/C=C/c3ccc(C(C)C)cc3)n(CCCl)c(=O)c2cc1F
CI [16]: 0.4 to 0.8 | CI [17]: 0.6 to 0.8 | inhibition [21]: Dose-dependent effect | Activity [24]: 76% | Activity [25]: Active | CI [26]: 0.5 to 0.8 | Activity [11]: Active | Activity [28]: Active | Activity [29]: Active | fold change (FC) [31]: 2 to 4 | inhibition [32]: inactive | Activity [35]: Dose-dependent effect | CI [37]: 0.4 to 0.8 | fold change (FC) [38]: 2 to 4

IC50 [12]: > 20 µM | inhibition [10]: inactive | IC50 [5]: 2.8 µM | inhibition [7]: Active
SMILES: CC(C)c1ccc(/C=C2\CCn3c2nc2cc(NCCN(C)C)c(F)cc2c3=O)cc1
Activity [11]: Active

IC50 [12]: > 20 µM | inhibition [10]: inactive | IC50 [5]: 2.1 µM | inhibition [7]: Active
SMILES: CCN(CC)CCNc1cc2nc3n(c(=O)c2cc1F)CC/C3=C\c1ccc(N(CC)CC)cc1O
Activity [11]: Active

IC50 [5]: > 10 µM | Inhibition (active/not active) [39]: Active
SMILES: CCN(CC)CCNc1cc2nc3n(c(=O)c2cc1F)CCC/C3=C\c1ccc(C(C)C)cc1

IC50 [5]: > 10 µM | Inhibition (active/not active) [39]: Active
SMILES: CCN(CC)CCNc1cc2nc3c(cc2cc1F)CC/C3=C\c1ccc(C(C)C)cc1

IC50 [5]: > 10 µM | Inhibition (active/not active) [39]: Active
SMILES: CCN(CC)CCNc1cc2nc3n(c(=O)c2cc1F)CC/C3=C\c1ccc(N(C)C)cc1

inhibition [10]: inactive | IC50 [5]: 2.2 µM | inhibition [7]: Active
SMILES: CCN(CC)CCNc1cc2nc(/C=C/c3ccc(C(C)C)cc3)n(C)c(=O)c2cc1F
Activity [11]: Active

IC50 [5]: > 10 µM | Inhibition (active/not active) [39]: Active
SMILES: CCc1ccc(/C=C2\CCc3c2nc2ccccc2c3NCCCN(CC)CC)cc1
